In the case of `Cc1ccc(C=CC(=O)O)cc1`, the melting point (usually the temperature, or range, at which the solid turns liquid) lay within 198 to 201 °C.
As for `O=C(c1ccccc1)c1ccc(Cl)c(Cl)c1`, the figure is 102 °C.
As for `CC(C)(C)NSc1nc2ccccc2s1`, the figure is 108 °C; as for `BrCc1cccc(-c2ccsc2)c1`, 70 °C.
In turn, `CC(=O)Nc1cc(C)no1` registered a melting point of 161 to 162 °C.
As for `Cc1c(F)ccc(C(=O)Cl)c1F`, the figure is 37 °C.
To `CCNCC(=O)O` belongs 182 to 186 °C; to `CC1(C(=O)O)CCC2(C)CCC3(C)C(=CC(=O)C4C5(C)CCC(O)C(C)(C)C5CCC43C)C2C1` (stereo not given), 296 °C; to `CCOC(=O)c1c(N)sc2c1CCCC2`, 116 °C.
To `c1cnc(-c2noc(C3CCNCC3)n2)cn1` belongs 87 to 89 °C.
As for `CCCCC1CO1` (stereo not given), the melting point came out at 94 °C.
For the compound `CC(=O)c1cccc(C(C)=O)n1`, the melting point was 80 °C.
`N#Cc1c(N)sc2c1CCCC2` had a melting point of 142 °C.
In turn, `CCCNCCC` displayed a melting point of -63 °C.
As for `Cc1nc(-c2ccc(C#N)cc2)cs1`, the figure is 154 °C.
Take `Nc1ccc(Nc2ccc(N)cc2)cc1`: the melting point is 158 °C.
Compound `CC1C(=O)NC(=O)C1(C)C` (stereo not given) returned a melting point of 117 to 122 °C.
To `CCOC(=O)c1sc(Cl)nc1C` belongs 46 to 47 °C.
As for `N#Cc1ccccc1N=C=O`, the figure is 61 to 62 °C; as for `O=[N+]([O-])c1ccc2c(c1)=NC(=c1ccc(=C3N=c4cc([N+](=O)[O-])ccc4=C3O)cc1)C=2O`, 360 °C; as for `CC(C)(C)OC(=O)NCCNc1ccc(C(F)(F)F)cc1N`, 129 to 132 °C.
As for `CC1CCc2ccccc2C1` (stereo not given), the figure is -43.1 °C; as for `CCOc1nc2ccccc2c(=O)n1Cc1ccccc1`, 96 to 97 °C.
In the case of `O=S(=O)(n1ccnc1)n1ccnc1`, the melting point was 135 to 137 °C.
As for `Cn1c(CO)cnc1S`, the figure is 220 to 222 °C; as for `O=C1C=CC2=CC(=O)C=CC(=C1)C2`, 122 °C.
To `COc1ccc(-c2csc(/C(C#N)=C\c3cccs3)n2)cc1` belongs 140 °C; to `OCCCC(Cl)(Cl)CO`, 40 to 42 °C; to `Cc1csc(=S)n1O`, 88 to 93 °C.
Compound `FC(F)(F)C(F)(F)C(F)(F)C(F)(F)C(F)(F)C(F)(F)C(F)(F)F` came in with a melting point of -78 °C.
As for `Cc1nc(-c2ccc(S(=O)(=O)Cl)cc2)cs1`, the figure is 111 to 112 °C; as for `O=S(=O)(Cl)c1ccc(-c2cnco2)cc1`, 101 °C; as for `Cc1cc(NS(=O)(=O)c2ccc(N)cc2)nc(C)n1`, 243 °C.
As for `NC(Cn1ccc(=O)c(O)c1)C(=O)O` (stereo not given), the figure is 228 °C; as for `COc1ccc([N+](=O)[O-])c(O)c1`, 90 to 94 °C; as for `O=C(O)[C@@H]1CCN1`, 206 to 207 °C.
As for `O=c1[nH]nc(-c2ccccc2)c(=S)n1-c1ccc(F)c(Cl)c1`, the figure is 138 °C.
Turning to `NC(=O)COc1cccc(Cl)c1`, the melting point lay in the range of 123 to 126 °C.
To `CCC(=O)C(CC(C)N1CCOCC1)(c1ccccc1)c1ccccc1` (stereo not given) belongs 75 °C; to `CCCCCCCCC(=O)OCC`, -36.7 °C; to `Cc1cnc(NS(=O)(=O)c2ccc(N)cc2)nc1`, 262 °C.
To `N#Cc1ccccc1I` belongs 55 °C; to `Cc1ccc2ccc(C)cc2c1`, 97 °C.
As for `FC(F)(F)COc1ccc(OCC(F)(F)F)cc1`, the figure is 76 °C.
The compound `CCCCCCCC(=O)CCCCCCC` registered a melting point of 43 °C.
Take `N#CC1(c2ccc(Cl)cc2Cl)CC1`: the melting point was 81 to 85 °C.
To `Ic1ccc(I)c(I)c1I` belongs 136 °C.
As for `Cc1ccc(C(=O)C2=NN(c3ccccc3)C3C(=O)N(c4cccc([N+](=O)[O-])c4)C(=O)C23)cc1` (stereo not given), the figure is 176 °C; as for `CC(C)(C)OC(=O)Nc1ccc(CN)cc1`, 89 to 94 °C.
To `C[Si]1(C)N[Si](C)(C)N[Si](C)(C)N1` belongs -10 °C.
`Nc1nnc(C(F)(F)F)s1` gave a melting point of 224 °C.
As for `Cc1cc(Cl)cc(C)c1N`, the figure is 48 °C; as for `Cc1sc2ccccc2c1CC1=NCCN1`, 156 °C; as for `Nc1c(Cl)cc(C(=O)O)cc1Cl`, 292 °C.
On to `O=Cc1cn2ccccc2n1`, for which the melting point was in the range of 78 to 79 °C.
As for `COc1cc(OC(C)=O)c2c(=O)c(O[C@@H]3O[C@H](COC(C)=O)[C@H](OC(C)=O)[C@H](OC(C)=O)[C@@H]3O[C@@H]3O[C@H](C)[C@H](OC(C)=O)[C@H](OC(C)=O)[C@@H]3OC(C)=O)c(-c3ccc(OC(C)=O)c(OC(C)=O)c3)oc2c1`, the figure is 117 to 120 °C.
As to `Oc1cc(Cl)c(Cl)c(Cl)c1Cl`, the melting point amounted to 116 °C.
As to `C=CC/C=C/C`, the melting point is -139 °C.
Turning to `CC(=O)OC1CCC2C3CCC4=CC(O)CCC4(C)C3CCC12C` (stereo not given), the melting point was 96 °C.
To `COc1cc2c(cc1OC)[C@@H](C(=O)c1ccc3c(c1OC)C=CC(C)(C)O3)CCO2` belongs 118 °C.
To `N#CCCCC#N` belongs -29 °C; to `CCn1c(C)nc2ccccc21`, 51 °C; to `Cc1nnc(-c2ccccn2)nc1C`, 85 °C.
As for `Cc1cc(=S)cc(C)o1`, the figure is 142 °C; as for `CC(C)[C@H](N)P(=O)(O)O`, 270 °C.
Consider `CN1CCC(CCCC2CCN(C)CC2)CC1`, for which the melting point stood at 13.7 °C.
To `CC(=O)Oc1cccc2cccnc12` belongs 55 °C.
As for `CC(=O)c1ccc(N2CCOCC2)cc1`, the figure is 94 to 98 °C; as for `CC(C)[C@@H]1COC(=O)N1`, 70 to 73 °C; as for `COc1ccc(C2c3cc(OC)c(OC)cc3CCN2C(C)=O)cc1OC` (stereo not given), 164 to 165 °C.
To `O=Cc1cc(F)c(F)c(F)c1` belongs 25.3 °C; to `Cc1ccc(C)n1-c1cc([N+](=O)[O-])ccc1F`, 56 to 58 °C; to `CC(C)=C1CC(=C(C)C)C1=O`, 87 °C.
As for `COc1cc(C2Nn3c(nnc3-c3ccccc3OC)S2)ccc1O` (stereo not given), the melting point is 137 °C.
Consider `O=S(=O)(Oc1ccc(Cl)cc1)c1ccc(Cl)cc1`, for which the melting point worked out at 86.5 °C.
To `Nc1ccc(/C=C\c2ccc(N)cc2)cc1` belongs 121 °C; to `c1ccc(-c2oc(-c3ccccc3)c(-c3ccccc3)c2-c2ccccc2)cc1`, 175 °C.
To `ON=CNc1ncccn1` belongs 184 to 186 °C; to `O=C(O)C(O)(c1ccccc1)C1CCCCC1` (stereo not given), 163 to 164 °C; to `Cc1cc(C)c(N)cc1C`, 68 °C.
As for `Nc1cc(F)ccc1Br`, the figure is 44 °C.
`CCC(C(=O)O)c1ccccc1` (stereo not given): the melting point came out at 47.5 °C.
In turn, `c1c2c(cc3c1CCCN3)NCCC2` returned a melting point of 113 °C.
With `O=S(=O)(Cl)c1cc(Br)ccc1Br`, the melting point is 71 °C.
As for `O=C(O)c1cc([N+](=O)[O-])c(Cl)c([N+](=O)[O-])c1Cl`, the melting point lay within 210 to 215 °C.
`O=C1CC(=O)CC(c2ccco2)C1` had a melting point of 146 to 149 °C.
To `N#CCC(=O)NN` belongs 114 °C; to `C(=Cc1ccccn1)c1ccccn1`, 118 °C; to `OC(CCCc1ccccc1)c1ccccc1` (stereo not given), 47 °C.
As for `CSc1sc(C(=O)O)c(Cl)c1S(=O)(=O)C(C)C`, the figure is 227 to 230 °C; as for `Sc1c(Cl)c(Cl)c(Cl)c(Cl)c1Cl`, 232 °C.
As for `CC(=O)Nc1ccc(C(C)=O)cc1`, the figure is 169 °C; as for `C#Cc1ccc(Br)cc1`, 66 °C; as for `N#C/C(=N\Nc1ccc(F)cc1)c1nc2ccccc2c(=O)[nH]1`, 215 °C.
`CCOC(=O)CCC(C)C1CCC2C3C(=O)C(Br)C4CC(OC(C)=O)CCC4(C)C3CC(OC(C)=O)C12C` (stereo not given): the melting point lay within 132 to 134 °C.
Compound `CCCCCCOc1ccc(N)cc1` had a melting point of 44 °C.
To `CCOC(=O)C1CCN(c2cc(C#N)ccn2)CC1` belongs 51 to 53 °C; to `Cc1c(CO)cnn1-c1ccc(F)cc1`, 120 to 121 °C; to `Cc1ccc(CC(=O)Nc2ccc(C)cc2)cc1`, 163 °C.
The compound `CCOC(=O)c1sc2sc(C(=O)OCC)c(N)c2c1N` came in with a melting point of 200 °C.
As for `NNC(=S)NCCc1ccccc1`, the figure is 112 to 114 °C; as for `BrCc1ccc(OC2CCOCC2)cc1`, 56 to 58 °C.
As for `COC(OC)c1ccc(C#N)c(S)n1`, the figure is 137 to 139 °C.
With `CCOC(=O)c1c(C=O)c(C)n(-c2ccccc2)c1C`, the melting point lay in the range of 78 to 81 °C.
Take `CC(C)OC(=O)Cc1csc(-c2ccc(Cl)cc2)n1`: the melting point fell in the range of 82 to 84 °C.
As for `Cc1[nH]c2c([N+](=O)[O-])cccc2c1C`, the figure is 160 to 165 °C; as for `CC1CCC2(NC1)OC1CC3C4CCC5CC(O)CCC5(C)C4CCC3(C)C1C2C` (stereo not given), 210 °C.
To `O=C(NCN1CCOCC1)c1cnccn1` belongs 118 °C; to `CCCC(=O)Cl`, -89 °C; to `N#Cc1c(F)cccc1OCC(F)(F)F`, 88 to 90 °C.
To `CCCOc1ccc(C#N)cc1` belongs 41 °C; to `Cc1ccc(Br)c(C)c1[N+](=O)[O-]`, 70 °C; to `Cn1c(-c2ccccc2)cc2ccccc21`, 99 °C.
`CCN(CC)c1ccc(N=O)cc1` had a melting point of 87.5 °C.
To `O=C(O)CCc1ccc(Cl)cc1` belongs 119 °C.

Values taken from a melting point compilation (Tetko et al.).
